Measured values published in US9782364B1, “Curcumin-based compositions and methods of use thereof” (priority 2015, dated 2017).

What was measured:
NFkB-p65 = assay: Western blot of cytoplasmic and nuclear NFkB-p65 and phospho-serine 276 NFkB-p65 in LPS-induced BV2 microglia; type: cell-based; conditions: BV2 cells, 22.0 μg/ml, 30 min pre-treatment then LPS 30 min; for inhibition of NFkB-p65 nucleotranslocation (cytosolic and nuclear NFkB-p65 levels): FIGS. 3 and 4; for inhibition of NFkB-p65 serine 276 phosphorylation: cytoplasmic and nuclear, FIGS. 5 and 6
Procedure: (§1) Western blot analysis was performed in multiple varying formats before optimization was achieved. The BV2 microglia cell line was cultured in Dulbecco's Modified Eagle's Medium (DMEM)—complete medium. The complete medium consisted of DMEM, 1% Ampicillin, and 10% Fetal Bovine Serum (FBS). BV2 microglia cells, at a cell count of approximately 2×10^6, were seeded in each well (6 wells per plate) with 2.0 ml complete medium and cultured overnight in a ThermaForma HepaFilter Series II Coe Incubator at 37° Celsius. Upon establishing confluence, subconfluent cells were washed out and the wells were prepared with drug pre-treatment after overnight incubation.
(§2) The test drugs (curcuminoids) were procured as follows: curcumin I research standard (03926) (ChromaDex Irvine, Calif. USA) (97.7% purity); curcumin II research standard (04230) (ChromaDex Irvine, Calif. USA) (97.3%); curcumin III research standard (B6938) (Sigma-Aldrich St. Louis, Mo., USA) (97.7% purity); curcumin extract (curcumin I—77.7%, curcumin II—16.9%, curcumin III—0.9%) research standard (03928) (ChromaDex Irvine, Calif. USA) (95.3% purity); and Lipopolysaccharide (LPS) from E. Coli (L2630) (Sigma-Aldrich St. Louis, Mo., USA).
Curcuminoids are not soluble in aqueous medium due to their hydrophobic characteristic. However, curcuminoid extracts are soluble in polar organic solvents, such as DMSO and acetone. In this Example, each curcuminoid preparation was first dissolved in DMSO. DMSO was used in the drug preparation at 0.2%. The drug/DMSO solution was subsequently dissolved in DMEM to achieve a final drug concentration for each curcuminoid preparation tested—22.0 μg/ml curcuminoid. The DMEM/drug solution was used to replace the culture DMEM well medium and incubated for 30 minutes at 37-degrees Celsius in a ThermaForma incubator. At 31 minutes, lipopolysaccharide (LPS at […] final well concentration) induction of the cells was executed, except for the DMSO-only well to stimulate cell response amidst drug pre-treatment and without drug treatment.
The plates were then incubated for another 30 minutes after LPS stimulation. Upon removal from incubation, the cell medium was carefully removed and cells were washed, scraped, and collected with phosphate-buffered saline (PBS). Using a ThermoFisher Scientific NE-PER Nuclear and Cytoplasmic Extraction Kit (obtained from ThermoFisher Scientific Burlington, Ontario Canada), the cells were lysed and the cytoplasmic and nuclear protein fractions were collected and separated with the intention of probing each fraction for subcellular changes in cytoplasmic and nuclear proteins (as described further below).
Total protein concentration for each fraction was determined using a Bio Rad Protein Assay that is based on the Bradford Assay (dye-binding method). The total protein concentration determination was made prior to test sample preparation for gel electrophoresis execution (described below). The protein concentration colorimetric assay kit was purchased from Bio Rad Laboratories Canada Ltd. (Montreal, Quebec Canada). Each test sample was then prepared for loading and subjected to gel electrophoresis (SDS-PAGE) using a BioRad stain free gel system (Catalog No. 161-0181) and subsequently transferred/blotted to a nitrocellulose membrane (ThermoFisher Scientific Product No. 88018), blocked, and prepared for primary antibody treatment for each target.
The targets analyzed in the Western Blot included NFkB-p65 and its nucleocytoplasmic translocation, as well as kinases (including MSK1) and their covalent modifications upstream of and involved in the regulation of NFkB. Antibodies against NFkB-p65 (Ab16502) were procured from Abcam Inc. (Toronto, Ontario, Canada) as a primary antibody to probe for total NFkB-p65 levels in both nuclear and cytoplasmic fractions. […]

MSK1 = target: T1, MSK1 (Mus musculus, UniProt Q8C050); assay: Western blot of cytoplasmic and nuclear MSK1 and phospho-serine 376 MSK1 in LPS-induced BV2 microglia; type: cell-based; conditions: BV2 cells, 22.0 μg/ml, 30 min pre-treatment then LPS 30 min
T1 construct: the cells were lysed and the cytoplasmic and nuclear protein fractions were collected; endogenous in cells; host or cells: BV2 microglia, LPS-induced
T1 sequence (Q8C050 whole entry): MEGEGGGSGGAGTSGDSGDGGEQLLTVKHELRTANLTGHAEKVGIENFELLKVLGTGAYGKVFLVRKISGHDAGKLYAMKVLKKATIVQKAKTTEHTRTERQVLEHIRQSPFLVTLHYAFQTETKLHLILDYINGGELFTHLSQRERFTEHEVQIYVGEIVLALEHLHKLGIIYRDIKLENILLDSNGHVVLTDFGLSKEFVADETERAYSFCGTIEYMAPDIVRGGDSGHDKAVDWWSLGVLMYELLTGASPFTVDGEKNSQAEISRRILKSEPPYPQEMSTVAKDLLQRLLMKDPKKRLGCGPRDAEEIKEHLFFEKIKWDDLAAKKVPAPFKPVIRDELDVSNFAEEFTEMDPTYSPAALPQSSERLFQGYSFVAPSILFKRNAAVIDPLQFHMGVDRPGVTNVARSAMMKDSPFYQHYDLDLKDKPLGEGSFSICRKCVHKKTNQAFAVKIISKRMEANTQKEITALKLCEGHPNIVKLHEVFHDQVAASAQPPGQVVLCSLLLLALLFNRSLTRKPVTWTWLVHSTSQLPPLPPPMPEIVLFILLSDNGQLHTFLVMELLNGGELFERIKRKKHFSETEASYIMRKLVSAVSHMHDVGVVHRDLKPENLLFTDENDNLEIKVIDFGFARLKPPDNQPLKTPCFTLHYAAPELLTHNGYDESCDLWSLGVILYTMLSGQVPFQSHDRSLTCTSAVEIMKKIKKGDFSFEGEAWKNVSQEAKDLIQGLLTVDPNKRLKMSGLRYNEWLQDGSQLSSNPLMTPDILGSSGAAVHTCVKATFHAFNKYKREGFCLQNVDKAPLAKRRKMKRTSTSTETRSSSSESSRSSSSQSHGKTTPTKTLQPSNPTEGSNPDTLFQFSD
Procedure: as §1, §2
Curcuminoids are not soluble in aqueous medium due to their hydrophobic characteristic. However, curcuminoid extracts are soluble in polar organic solvents, such as DMSO and acetone. In this Example, each curcuminoid preparation was first dissolved in DMSO. DMSO was used in the drug preparation at 0.2%. The drug/DMSO solution was subsequently dissolved in DMEM to achieve a final drug concentration for each curcuminoid preparation tested—22.0 μg/ml curcuminoid. […]
Total protein concentration for each fraction was determined using a Bio Rad Protein Assay that is based on the Bradford Assay (dye-binding method). […]
The targets analyzed in the Western Blot included NFkB-p65 and its nucleocytoplasmic translocation, as well as kinases (including MSK1) and their covalent modifications upstream of and involved in the regulation of NFkB. […]

inhibition of MSK1 serine 376 phosphorylation (MSK1; cytoplasmic and nuclear, FIGS. 9 and 10)	Structure (SMILES)	inhibition of NFkB-p65 nucleotranslocation (cytosolic and nuclear NFkB-p65 levels) (NFkB-p65)	inhibition of NFkB-p65 serine 276 phosphorylation (NFkB-p65)	inhibition of MSK1 protein levels in the cytoplasm (MSK1; FIG. 7)	inhibition of MSK1 protein levels in the nucleus (MSK1; FIG. 8)
	O=C(/C=C/c1ccc(O)cc1)CC(=O)/C=C/c1ccc(O)cc1 [curcumin III, (1E,6E)-1,7-bis(4-hydroxyphenyl)hepta-1,6-diene-3,5-dione]	not significantly inhibited	moderately inhibit	significantly inhibited and downregulated	significantly inhibited and downregulated
inhibit	COc1cc(/C=C/C(=O)CC(=O)/C=C/c2ccc(O)cc2)ccc1O [curcumin II, (1E,6E)-1-(4-Hydroxy-3-methoxyphenyl)-7-(4-hydroxyphenyl)hepta-1,6-diene-3,5-dione]	not significantly inhibited	moderately inhibit		
	COc1cc(/C=C/C(=O)/C=C(O)/C=C/c2ccc(O)c(OC)c2)ccc1O [curcumin I, (1E,6E)-1,7-Bis(4-hydroxy-3-methoxyphenyl)-1,6-heptadiene-3,5-dione]	not significantly inhibited	moderately inhibit		
